In this experiment the test system is 817829-284-R-J1-PDC spheroids with HUVEC/MSC, viability. Description: Anticancer human tumor 817829-284-R-J1-PDC patient-derived colon adenocarcinoma cell line growth inhibition [TAK]. The conditions noted are these: for viability, T/C: stronger effect = lower value. The procedure, abridged: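 Spheroids of 60% malignant cells, 25% HUVEC and 15% hMSC were exposed to targeted agents combined with TAK-243 or ipatasertib. Concentrations started at or near clinical Cmax (10 microM if unknown) and descended in half-log steps.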

Setting [1] is: curve of first compound, second compound 0.3 µM.
Where [2] appears, read: curve of first compound, second compound 0.949 µM.
Setting [3] is: curve of first compound, second compound 3 µM.
Setting [4] is: curve of first compound, second compound 9.49 µM.
Where [5] appears, read: curve of first compound, second compound 30 µM.
The mark [6] stands for this setting: second compound 0.3 µM, first compound 0.000316 µM.
Setting [7] is: second compound 0.3 µM, first compound 0.001 µM.
The mark [8] stands for this setting: second compound 0.3 µM, first compound 0.00316 µM.
Where [9] appears, read: second compound 0.3 µM, first compound 0.01 µM.
[10] abbreviates: second compound 0.3 µM, first compound 0.0316 µM.
Where [11] appears, read: second compound 0.3 µM, first compound 0.1 µM.
[12] abbreviates: second compound 0.949 µM, first compound 0.000316 µM.
Setting [13] is: second compound 0.949 µM, first compound 0.001 µM.
Setting [14] is: second compound 0.949 µM, first compound 0.00316 µM.
Where [15] appears, read: second compound 0.949 µM, first compound 0.01 µM.
Where [16] appears, read: second compound 0.949 µM, first compound 0.0316 µM.
Where [17] appears, read: second compound 0.949 µM, first compound 0.1 µM.
Setting [18] is: second compound 3 µM, first compound 0.000316 µM.
[19] abbreviates: second compound 3 µM, first compound 0.001 µM.
[20] abbreviates: second compound 3 µM, first compound 0.00316 µM.
Where [21] appears, read: second compound 3 µM, first compound 0.01 µM.
[22] abbreviates: second compound 3 µM, first compound 0.0316 µM.
[23] abbreviates: second compound 3 µM, first compound 0.1 µM.
[24] abbreviates: second compound 9.49 µM, first compound 0.000316 µM.
The mark [25] stands for this setting: second compound 9.49 µM, first compound 0.001 µM.
Setting [26] is: second compound 9.49 µM, first compound 0.00316 µM.
The mark [27] stands for this setting: second compound 9.49 µM, first compound 0.01 µM.
The mark [28] stands for this setting: second compound 9.49 µM, first compound 0.0316 µM.
Setting [29] is: second compound 9.49 µM, first compound 0.1 µM.
[30] abbreviates: second compound 30 µM, first compound 0.000316 µM.
Where [31] appears, read: second compound 30 µM, first compound 0.001 µM.
[32] abbreviates: second compound 30 µM, first compound 0.00316 µM.
Setting [33] is: second compound 30 µM, first compound 0.01 µM.
The mark [34] stands for this setting: second compound 30 µM, first compound 0.0316 µM.
[35] abbreviates: second compound 30 µM, first compound 0.1 µM.

pIC50: −log10 of the molar value. “And” between values parts separate entries of the source, which are not always exact repeats. Equal entries are not always repeated. The source made the active and inactive calls. How the source made its calls: active means viability on the fitted dose curve at most 10% of control; inactive means the rest.

Regarding `CC(C)CC(NC(=O)CNC(=O)c1cc(Cl)ccc1Cl)B1OC(=O)CC(CC(=O)O)(C(=O)O)O1` (stereo not given) + CC(C)NCC(C(=O)N1CCN(c2ncnc3c2C(C)CC3O)CC1)c1ccc(Cl)cc1, the negative logarithm of the IC50 (pIC50) (as a rule, the IC50 on a negative log10 scale, so that one unit is a factor of ten) was 7.80 under setting [1]; above 9.50 under setting [2]; above 9.50 under setting [3]; above 9.50 under setting [4]; above 9.50 under setting [5]. The viability, T/C – broadly, the result in the treated group divided by that in the control group, in per cent – under setting [6] was 103%; the viability, T/C under setting [7] is 93.4%; the viability, T/C under setting [8] is 82.4%; the viability, T/C under setting [9] is 81%; the viability, T/C under setting [10] is 4.01%; the viability, T/C under setting [11] was 0.25%. Besides, the viability, T/C reads like this: under setting [12], 33.5%; under setting [13], 22.1%; under setting [14], 30.2%; under setting [15], 25%; under setting [16], 0.36%; under setting [17], 0.13%. Further, the viability, T/C is 10.5% under setting [18]; 10% under setting [19]; 10.2% under setting [20]; 10.8% under setting [21]; 0.42% under setting [22]; 0.12% under setting [23]. Moreover, the viability, T/C is 5.98% under setting [24]; 6.67% under setting [25]; 6.96% under setting [26]; 6.39% under setting [27]; 0.53% under setting [28]; 0.12% under setting [29]. Besides, the viability, T/C was 5.15% under setting [30]; 4.38% under setting [31]; 4.75% under setting [32]; 4.63% under setting [33]; 0.23% under setting [34]; 0.32% under setting [35].

`CC(C)CC(NC(=O)C(Cc1ccccc1)NC(=O)c1cnccn1)B(O)O` (stereo not given) + CC(C)NCC(C(=O)N1CCN(c2ncnc3c2C(C)CC3O)CC1)c1ccc(Cl)cc1: the pIC50 was 8.31 under setting [1]; 8.37 under setting [2]; above 10.50 under setting [3]; above 10.50 under setting [4]; above 10.50 under setting [5]. The viability, T/C by setting is: (second compound 0.3 µM, first compound 31.6 pM) 108%; (second compound 0.3 µM, first compound 0.0001 µM) 104%; under setting [6], 105%; under setting [7], 100%; under setting [8], 80.7%; under setting [9], 0.6%. The viability, T/C is 88% (second compound 0.949 µM, first compound 31.6 pM); 60.8% (second compound 0.949 µM, first compound 0.0001 µM); 64.6% under setting [12]; 77.2% under setting [13]; 66.7% under setting [14]; 0.35% under setting [15]. Besides, the viability, T/C reads like this: (second compound 3 µM, first compound 31.6 pM) 29.4%; (second compound 3 µM, first compound 0.0001 µM) 22.9%; under setting [18], 29.9%; under setting [19], 22.3%; under setting [20], 19.9%; under setting [21], 0.2%. Besides, the viability, T/C was 12.7% (second compound 9.49 µM, first compound 31.6 pM); 13.2% (second compound 9.49 µM, first compound 0.0001 µM); 11.6% under setting [24]; 13.6% under setting [25]; 8.78% under setting [26]; 0.15% under setting [27]. The viability, T/C reads like this: (second compound 30 µM, first compound 31.6 pM) 8.2%; (second compound 30 µM, first compound 0.0001 µM) 8.27%; under setting [30], 10.2%; under setting [31], 9.25%; under setting [32], 6.13%; under setting [33], 0.2%.

In the case of `CC(C)CC(NC(=O)C(Cc1ccccc1)NC(=O)c1cnccn1)B(O)O` (stereo not given), the viability, T/C reads like this: (compound 31.6 pM) 102% and 95.1%; (compound 0.0001 µM) 99.1% and 89.3%; (compound 0.000316 µM) 98.6% and 94.7%; (compound 0.001 µM) 89.5% and 98.6%; (compound 0.00316 µM) 103% and 99.9%. For the same compound, the pIC50 (curve of compound) was 8.25 and < 8.00.

Turning to `COc1c(OCCCN2CCOCC2)ccc2c3n(c(=NC(=O)c4cnc(N)nc4)nc12)CCN3`, the viability, T/C by setting is: (compound 0.00316 µM) 104% and 105%; (compound 0.01 µM) 90.7% and 96.1%; (compound 0.0316 µM) 63.8% and 44.4%; (compound 0.1 µM) 18.7% and 13.9%; (compound 0.316 µM) 3.92% and 2.94%; (compound 1 µM) 2.85% and 3.44%. In addition, the pIC50 (curve of compound) was 7.36 and 7.54.

As to `CC(C)n1nc(-c2ccc3oc(N)nc3c2)c2c(N)ncnc21` + CC(C)NCC(C(=O)N1CCN(c2ncnc3c2C(C)CC3O)CC1)c1ccc(Cl)cc1, the negative logarithm of the IC50 (pIC50) reads like this: under setting [1], 7.82; under setting [2], 8.82; under setting [3], above 9.50; under setting [4], above 9.50; under setting [5], above 9.50. The viability, T/C by setting is: under setting [6], 95.8%; under setting [7], 97.5%; under setting [8], 81.4%; under setting [9], 62.4%; under setting [10], 29.9%; under setting [11], 18%. The viability, T/C under setting [12] is 62%; the viability, T/C under setting [13] was 63.8%; the viability, T/C under setting [14] is 26.7%; the viability, T/C under setting [15] is 20.4%; the viability, T/C under setting [16] was 14.1%; the viability, T/C under setting [17] is 9.37%. In addition, the viability, T/C by setting is: under setting [18], 17.9%; under setting [19], 22.1%; under setting [20], 14.9%; under setting [21], 10.1%; under setting [22], 9.06%; under setting [23], 7.73%. Further, the viability, T/C reads like this: under setting [24], 9.8%; under setting [25], 12.5%; under setting [26], 7.29%; under setting [27], 7.54%; under setting [28], 4.98%; under setting [29], 4.87%. Also, the viability, T/C under setting [30] was 6.54%; the viability, T/C under setting [31] was 6.66%; the viability, T/C under setting [32] was 5.92%; the viability, T/C under setting [33] was 3.93%; the viability, T/C under setting [34] was 3.59%; the viability, T/C under setting [35] was 3.29%.

For the compound `CC(C)(C)c1nc(-c2cccc(NS(=O)(=O)c3c(F)cccc3F)c2F)c(-c2ccnc(N)n2)s1`, the viability, T/C by setting is: (compound 0.0316 µM) 98.1% and 94%; (compound 0.1 µM) 87.5% and 82.2%; (compound 0.316 µM) 54.2% and 63.3%; (compound 1 µM) 31%; (compound 3.16 µM) 64.7% and 54.7%; (compound 10 µM) 46.4% and 50.4%. For the same compound, the result (compound 1 µM) was inactive.
